Assay results from patent US7378419B2, “9-amino-podophyllotoxin derivatives, method for the production thereof and pharmaceutical compositions containing said derivatives” (Les Laboratoires Servier, priority 2003, dated 2008).
Values belong to the compound of their own block, whether it stands above or below them.

Experiments:
L1210 cells = assay: Action on the cell cycle (G2+M accumulation); type: cell-based, murine; settings: L1210, after 21 hours, concentration of 250 nM (control: 20%)
Protocol: The L1210 cells are incubated for 21 hours at 37° C. in the presence of various concentrations of the products tested. The cells then are fixed with 70% ethanol (v/v), washed twice in PBS and incubated for 30 minutes at 20° C. in PBS containing 100 μg/ml of RNase and 50 μg/ml of propidium iodide. The results are expressed as a percentage of cells accumulated in phase G2+M after 21 hours compared to the control (control: 20%). The compounds of examples 2 and 4 induce an accumulation of 70% and 81%, respectively, of the cells in phase G2+M after 21 hours at a concentration of 250 nM.

L1210 = assay: In vitro cytotoxicity, microculture tetrazolium assay, L1210; type: cell-based; settings: L1210 murine leukemia, 48 hours exposure
Protocol: (§1) Six cell lines were used: • 1 murine leukemia: L1210 • 1 human epidermal carcinoma: KB-3-1 • 1 human pulmonary carcinoma, not small cell: A549 • 1 melanoma: A375 • 1 neuroblastoma: SK-N-MC • 1 fibrosarcoma: HT1080
(§2) The cells are cultivated in complete RPMI 1640 culture medium containing 10% of fetal calf serum, 2 mM of glutamine, 50 U/ml of penicillin, 50 μg/ml of streptomycin and 10 mM of Hepes, pH: 7.4. The cells are distributed in microplates and exposed to cytotoxic compounds for 4 doubling times, which is 48 hours. The number of viable cells is then quantified by a […] assay, the microculture tetrazolium assay (J. Carmichael et al., Cancer Res.; 47, 936-942, (1987)). The results are expressed as IC50, the cytotoxic concentration that inhibits the proliferation of the treated cells by 50%.

[1] = tested on: A549 human pulmonary carcinoma; assay: In vivo anti-tumor activity on A549 human pulmonary carcinoma; settings: A549, 3.12 mg/kg
Description: *Anti-Tumor Activity of the Compounds on P388 Leukemia and on A549 Human Pulmonary Carcinoma:
(§3) The anti-tumor activity is expressed in T/C %: T/C%=(median survival time of the treated animals)/(median survival time of the control animals)×100

SK-N-MC = assay: In vitro cytotoxicity, microculture tetrazolium assay, SK-N-MC; type: cell-based; settings: Homo sapiens; SK-N-MC neuroblastoma, 48 hours exposure
Protocol: as §1, §2

A549 = assay: In vitro cytotoxicity, microculture tetrazolium assay, A549; type: cell-based; settings: A549 human pulmonary carcinoma, not small cell, 48 hours exposure
Protocol: as §1, §2

KB-3-1 = assay: In vitro cytotoxicity, microculture tetrazolium assay, KB-3-1; type: cell-based; settings: KB-3-1 human epidermal carcinoma, 48 hours exposure
Protocol: as §1, §2

HT1080 = assay: In vitro cytotoxicity, microculture tetrazolium assay, HT1080; type: cell-based; settings: Homo sapiens, HT-1080; HT1080 fibrosarcoma, 48 hours exposure
Protocol: as §1, §2

A375 = assay: In vitro cytotoxicity, microculture tetrazolium assay, A375; type: cell-based; settings: Homo sapiens, A-375; A375 melanoma, 48 hours exposure
Protocol: as §1, §2

P388 leukemia = assay: In vivo anti-tumor activity on P388 leukemia; settings: P388, 50 mg/kg, intravenously on day 1, female BDF1 mice
Protocol: The P388 line (murine leukemia) was provided by the National Cancer Institute (Frederick, Md., USA). The tumor cells (10^6 cells) were inoculated on day 0 in the peritoneal cavity of female BDF1 mice (Iffa-Credo, France) weighing from 18 to 20 g (groups of 6 animals). The products were administered intravenously on day 1.
as §3

melting point: 182 to 184 °C
Compound: COc1cc([C@@H]2c3cc4c(cc3[C@@H](NC3=CC(=O)N(Cc5ccc(F)cc5)C3=O)[C@H]3COC(=O)[C@H]23)OCO4)cc(OC)c1O[Si](C)(C)C(C)(C)C

melting point: 177 to 179 °C
Compound: COc1cc([C@@H]2c3cc4c(cc3[C@@H](NC3=CC(=O)N(Cc5ccc(NC(C)=O)cc5)C3=O)[C@H]3COC(=O)[C@H]23)OCO4)cc(OC)c1O[Si](C)(C)C(C)(C)C

melting point: 200 to 204 °C (dec.)
Compound: COc1cc([C@@H]2c3cc4c(cc3[C@@H](NC3=CC(=O)N(Cc5ccc(NC(C)=O)cc5)C3=O)[C@H]3COC(=O)[C@H]23)OCO4)cc(OC)c1O

melting point: 214 to 216 °C
Compound: COc1cc([C@@H]2c3cc4c(cc3[C@@H](NC3=CC(=O)N(Cc5ccc(F)cc5)C3=O)[C@H]3COC(=O)[C@H]23)OCO4)cc(OC)c1O

More lines, now with the values behind:

Compound: COc1cc([C@@H]2c3cc4c(cc3[C@@H](NC3=CC(=O)N(Cc5ccc(C(F)(F)F)cc5)C3=O)[C@H]3COC(=O)[C@H]23)OCO4)cc(OC)c1O
melting point: 184 to 186 °C

Compound: COc1cc([C@@H]2c3cc4c(cc3[C@@H](NC3=CC(=O)N(CCCCCC(=O)O)C3=O)[C@H]3COC(=O)[C@H]23)OCO4)cc(OC)c1O
melting point: 150 to 152 °C

Compound: COc1cc([C@@H]2c3cc4c(cc3[C@@H](NC3=C(C)C(=O)N(C)C3=O)[C@H]3COC(=O)[C@H]23)OCO4)cc(OC)c1O
melting point: 172 to 176 °C

Compound: C=CCN1C(=O)C=C(N[C@@H]2c3cc4c(cc3[C@@H](c3cc(OC)c(O)c(OC)c3)[C@H]3C(=O)OC[C@@H]32)OCO4)C1=O
melting point: 180 to 183 °C

Compound: COc1cc([C@@H]2c3cc4c(cc3[C@@H](NC3=CC(=O)N(Cc5ccccc5)C3=O)[C@H]3COC(=O)[C@H]23)OCO4)cc(OC)c1O [Example 4, 3-{[(5S,5aS,8aR,9R)-9-(4-Hydroxo-3,5-dimethoxyphenyl)-8-oxo-5,5a,6,8,8a,9-hexahydrofuro[3′,4′:6,7]naphtho[2,3-d][1,3]dioxol-5-yl]amino}-1-benzyl-1H-pyrrole-2,5-dione]
percentage of cells accumulated in phase G2+M (L1210 cells): 81%
IC50 (L1210): 29 nM

Compound: COc1cc([C@@H]2c3cc4c(cc3[C@@H](NC3=CC(=O)N(C)C3=O)[C@H]3COC(=O)[C@H]23)OCO4)cc(OC)c1O [Example 2, 3-{[(5S,5aS,8aR,9R)-9-(4-Hydroxy-3,5-dimethoxyphenyl)-8-oxo-5,5a,6,8,8a,9-hexahydrofuro[3′,4′:6,7]naphtho[2,3-d][1,3]dioxol-5-yl]amino}-1-methyl-1H-pyrrole-2,5-dione]
T/C [1]: 225%
IC50 (SK-N-MC): 106 nM
percentage of cells accumulated in phase G2+M (L1210 cells): 70%
IC50 (A549): 110 nM
IC50 (KB-3-1): 66.6 nM
IC50 (L1210; Mus musculus): 54 nM
IC50 (HT1080): 75.8 nM
IC50 (A375): 44.2 nM
T/C (median survival time treated/control x 100) (P388 leukemia): > 575%
animals surviving as of day 60 (P388 leukemia): 50%
